Experimental data: patent US12617783B2, “Heterocyclic GLP-1R agonists” (BIOMEA FUSION, INC., priority 2024, dated 2026)

Target: T1, human GLP-1R (Homo sapiens, UniProt P43220)
T1 construct: host or cells: HEK293
Assay: GLP-1R cAMP assay (Example B1a, HTRF, 30 min at room temperature)
Assay type: cell-based
Conditions: cAMP accumulation in HEK293 expressing human GLP-1R, no BETP, 30 min room temperature (Method B1a, compounds ID 1-609), Table 1; read-out: EC50
Procedure, shortened: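 Competitive HTRF read-out of cAMP after 30 min room-temperature stimulation, BETP absent, of human GLP-1R-HEK293 cells (1,000/well) in HEPES buffer with 500 μM IBMX and 0.1% BSA. Activation normalised to GLP-1(7-37) positive control. EC50 from 4-parameter non-linear regression.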

T1 sequence (P43220 24-463): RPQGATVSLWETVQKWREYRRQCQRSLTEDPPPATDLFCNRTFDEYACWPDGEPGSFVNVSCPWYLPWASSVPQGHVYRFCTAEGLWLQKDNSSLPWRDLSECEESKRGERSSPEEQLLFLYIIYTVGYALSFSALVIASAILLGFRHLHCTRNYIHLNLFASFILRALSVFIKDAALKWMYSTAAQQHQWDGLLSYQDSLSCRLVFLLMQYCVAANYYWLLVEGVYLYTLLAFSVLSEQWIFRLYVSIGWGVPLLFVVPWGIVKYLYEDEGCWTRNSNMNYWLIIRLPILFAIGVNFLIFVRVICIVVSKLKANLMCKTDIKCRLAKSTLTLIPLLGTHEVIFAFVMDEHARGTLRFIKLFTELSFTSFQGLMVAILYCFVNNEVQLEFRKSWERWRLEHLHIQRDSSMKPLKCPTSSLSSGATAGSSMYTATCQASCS

How did the EC50 turn out when `Cc1cc(-n2nc3c(c2-n2ccn(-c4ccc5cnncc5c4F)c2=O)CN(C(=O)c2cc4cc([C@H]5CCOC(C)(C)C5)ccc4n2[C@@]2(c4noc(=O)[nH]4)C[C@@H]2C)CCC3)cc(C)c1F` [Compound 521, 3-[(1S,2S)-1-[5-[(4S)-2,2-dimethyltetrahydropyran-4-yl]-2-[2-(4-fluoro-3,5-dimethyl-phenyl)-3-[3-(5-fluorophthalazin-6-yl)-2-oxo-imidazol-1-yl]-4,6,7,8-tetrahydropyrazolo[4,3-c]azepine-5-carbonyl]indol-1-yl]-2-methyl-cyclopropyl]-4H-1,2,4-oxadiazol-5-one] was run?
Its EC50 is 197 nM.

Which EC50 does the source give for `Cc1cc(-n2nc3c(c2-n2ccn(-c4ccc5c(cnn5C)c4F)c2=O)[C@@H]2COC[C@H](C3)N2S(=O)(=O)c2cc3cc([C@H]4CCOC(C)(C)C4)ccc3n2[C@@]2(c3noc(=O)[nH]3)C[C@@H]2C)cc(C)c1F` [Compound 536, 3-((1S,2S)-1-(5-((S)-2,2-dimethyltetrahydro-2H-pyran-4-yl)-2-(((4R,8S)-3-(3-(4-fluoro-1-methyl-1H-indazol-5-yl)-2-oxo-2,3-dihydro-1H-imidazol-1-yl)-2-(4-fluoro-3,5-dimethylphenyl)-2,4,5,7,8,9-hexahydro-4,8-epiminooxocino [5,4-c]pyrazol-10-yl)sulfonyl)-1H-indol-1-yl)-2-methylcyclopropyl)-1,2,4-oxadiazol-5 (4H)-one] here?
Its EC50 is 262 nM.

For `Cc1cc(-n2nc3c(c2-n2ccn(-c4cccc(C(N)=O)c4F)c2=O)[C@@H]2CC[C@H](C3)N2C(=O)c2cc3cc([C@H]4CCOC(C)(C)C4)ccc3n2[C@@]2(c3noc(=O)[nH]3)C[C@@H]2C)cc(C)c1F` [Compound 422, 3-[3-[(1S,8R)-11-[5-[(4S)-2,2-dimethyltetrahydropyran-4-yl]-1-[(1S,2S)-2-methyl-1-(5-oxo-4H-1,2,4-oxadiazol-3-yl)cyclopropyl]indole-2-carbonyl]-4-(4-fluoro-3,5-dimethyl-phenyl)-4,5,11-triazatricyclo[6.2.1.02,6]undeca-2,5-dien-3-yl]-2-oxo-imidazol-1-yl]-2-fluoro-benzamide], which EC50 is on record?
Its EC50 is 303 nM.

`Cc1cc(-n2nc3c(c2-n2ccn(-c4ccc5c(cnn5C)c4F)c2=O)[C@H]2CC[C@@H](C3)N2C(=O)c2cc3cc([C@@H]4CCOC5(CC5)C4)ccc3n2[C@@]2(c3noc(=O)[nH]3)C[C@@H]2C)cc(C)c1F` [Compound 414, 3-((1S,2S)-1-(2-((4R,7S)-3-(3-(4-fluoro-1-methyl-1H-indazol-5-yl)-2-oxo-2,3-dihydro-1H-imidazol-1-yl)-2-(4-fluoro-3,5-dimethylphenyl)-2,4,5,6,7,8-hexahydro-4,7-epiminocyclohepta [c]pyrazole-9-carbonyl)-5-((R)-4-oxaspiro[2.5]octan-7-yl)-1H-indol-1-yl)-2-methylcyclopropyl)-1,2,4-oxadiazol-5 (4H)-one] was tested. Which EC50 did it give?
The EC50 was no less than 10000 nM.

With `Cc1cc(-n2nc3c(c2-n2ccn(-c4ccc5c(cnn5C)c4F)c2=O)[C@@H]2CCC[C@H](C3)N2S(=O)(=O)c2cc3cc([C@@H]4CCOC5(CC5)C4)ccc3n2[C@]2(c3noc(=O)[nH]3)C[C@@H]2C)cc(C)c1F` [Compound 603, 3-[(1R,2S)-1-[2-[[(1S,8R)-4-(4-fluoro-3,5-dimethyl-phenyl)-3-[3-(4-fluoro-1-methyl-indazol-5-yl)-2-oxo-imidazol-1-yl]-4,5,12-triazatricyclo[6.3.1.02,6]dodeca-2,5-dien-12-yl]sulfonyl]-5-[(7R)-4-oxaspiro[2.5]octan-7-yl]indol-1-yl]-2-methyl-cyclopropyl]-4H-1,2,4-oxadiazol-5-one] as the molecule, how does the EC50 read?
Its EC50 is no less than 10000 nM.

With `Cc1cc(-n2nc3c(c2-n2ccn(-c4ccc5[nH]ncc5c4F)c2=O)CN(C(=O)c2cc4cc([C@H]5CCOC(C)(C)C5)ccc4n2[C@@]2(c4noc(=O)[nH]4)C[C@@H]2C)CCC3)cc(C)c1F` [Compound 505, 3-[(1S,2S)-1-[5-[(4S)-2,2-dimethyltetrahydropyran-4-yl]-2-[2-(4-fluoro-3,5-dimethyl-phenyl)-3-[3-(4-fluoro-1H-indazol-5-yl)-2-oxo-imidazol-1-yl]-4,6,7,8-tetrahydropyrazolo[4,3-c]azepine-5-carbonyl]indol-1-yl]-2-methyl-cyclopropyl]-4H-1,2,4-oxadiazol-5-one] as the molecule, how does the EC50 read?
Its EC50 is 600 nM.

`Cc1cc(-n2nc3c(c2-n2ccn(-c4ccc5c(cnn5C)c4F)c2=O)[C@@H]2CCC[C@H](C3)N2S(=O)(=O)c2cc3cc([C@H]4CCOC5(CC5)C4)ccc3n2[C@@]2(c3noc(=O)[nH]3)C[C@@H]2C)cc(C)c1F` [Compound 608, 3-[(1S,2S)-1-[2-[[(1S,8R)-4-(4-fluoro-3,5-dimethyl-phenyl)-3-[3-(4-fluoro-1-methyl-indazol-5-yl)-2-oxo-imidazol-1-yl]-4,5,12-triazatricyclo[6.3.1.02,6]dodeca-2,5-dien-12-yl]sulfonyl]-5-[(7S)-4-oxaspiro[2.5]octan-7-yl]indol-1-yl]-2-methyl-cyclopropyl]-4H-1,2,4-oxadiazol-5-one] was tested. Which EC50 did it give?
The EC50 was no less than 10000 nM.

With `Cc1cc(-n2nc3c(c2-n2ccn(-c4ccc5c(cnn5C)c4F)c2=O)[C@@H]2CC[C@H](C3)N2C(=O)c2cc3cc([C@H]4CCOC(C)(C)C4)ccc3n2[C@@]2(C(=O)NC3CC3)C[C@@H]2C)cc(C)c1F` [Compound 246, cis-(1S,2S)-N-cyclopropyl-1-[5-[(4S)-2,2-dimethyltetrahydropyran-4-yl]-2-[(1S,8R)-4-(4-fluoro-3,5-dimethyl-phenyl)-3-[3-(4-fluoro-1-methyl-indazol-5-yl)-2-oxo-imidazol-1-yl]-4,5,11-triazatricyclo[6.2.1.02,6]undeca-2,5-diene-11-carbonyl]indol-1-yl]-2-methyl-cyclopropanecarboxamide] as the molecule, how does the EC50 read?
Its EC50 is 699 nM.

`Cc1cc(-n2nc3c(c2-n2ccn(-c4ccc5c(cnn5C)c4F)c2=O)[C@@H]2CC[C@H](C3)N2C(=O)c2cc3c(=O)n(C4CCOC(C)(C)C4)ccc3n2[C@@]2(c3noc(=O)[nH]3)C[C@@H]2C)cc(C)c1F` (stereo partly drawn) [Compound 231, 3-[(1S,2S)-1-[5-(2,2-dimethyltetrahydropyran-4-yl)-2-[(1S,8R)-4-(4-fluoro-3,5-dimethyl-phenyl)-3-[3-(4-fluoro-1-methyl-indazol-5-yl)-2-oxo-imidazol-1-yl]-4,5,11-triazatricyclo[6.2.1.02,6]undeca-2,5-diene-11-carbonyl]-4-oxo-pyrrolo[3,2-c]pyridin-1-yl]-2-methyl-cyclopropyl]-4H-1,2,4-oxadiazol-5-one] was tested. Which EC50 did it give?
Its EC50 is greater than 10000 nM.

How did the EC50 turn out when `Cc1cc(-n2nc3c(c2-n2ccn(-c4ccc5c(cnn5C)c4F)c2=O)[C@@H]2CC[C@H](C3)N2C(=O)c2cc3cc([C@@H]4CCOC5(CC5)C4)ccc3n2[C@@]2(c3noc(=O)[nH]3)C[C@@H]2C)cc(C)c1F` [Compound 215, 3-((1S,2S)-1-(2-((4S,7R)-3-(3-(4-fluoro-1-methyl-1H-indazol-5-yl)-2-oxo-2,3-dihydro-1H-imidazol-1-yl)-2-(4-fluoro-3,5-dimethylphenyl)-2,4,5,6,7,8-hexahydro-4,7-epiminocyclohepta [c]pyrazole-9-carbonyl)-5-((R)-4-oxaspiro[2.5]octan-7-yl)-1H-indol-1-yl)-2-methylcyclopropyl)-1,2,4-oxadiazol-5 (4H)-one] was run?
The EC50 was 4130 nM.
